The source of these data is patent US6472563B1, “Formoterol tartrate process and polymorph” (Sepracor Inc., priority 2001, dated 2002).

The structures appear in SMILES notation.

For series [1] the following is noted: factor; cited from earlier work.
For series [2] the following is noted: compared to other salts of R,R-formoterol; cited from earlier work.
Series [3] in a line: Dissolution studies: 17 wt % slurry in 50% aqueous isopropyl alcohol stirred with warming. Particulars: listed as form A. In kind it is physicochemical.
Description: Dissolution studies were done on each polymorph. A 17 wt % slurry of the respective solid in 50% aqueous isopropyl alcohol was stirred with warming, and the temperature of dissolution was recorded.

In the case of `CCCCCCCCCCCCCCCC(=O)OC[C@@H](NC(=O)C(Cl)Cl)[C@H](O)c1ccc([N+](=O)[O-])cc1` [Chloramphenicol-3-palmitate], the “difference in bio-activity between form A and form B” value in series [1] was “eight”.

With `COc1ccc(C[C@@H](C)NC[C@H](O)c2ccc(O)c(NC=O)c2)cc1.O=C(O)C(O)C(O)C(=O)O` [L-(+)-tartrate salt of R,R-formoterol, (R,R)-formoterol L-tartrate], in series [2], the hygroscopicity result is on record as “non-hygroscopic”.

With `COc1ccc(C[C@@H](C)NC[C@H](O)c2ccc(O)c(NC=O)c2)cc1.O=C(O)C(O)C(O)C(=O)O` [Polymorph A, (R,R)-formoterol L-tartrate], the temperature of dissolution in series [3] is 65-70 °C.
